Experimental data taken from patent US20220226341A1, “Pharmaceutical Composition for Alzheimer's Disease” (Kyoto University, priority 2019, published 2022).

Molecular target: CDK9/CycT1 (Homo sapiens, UniProt P50750)
Assay: CDK9 inhibitory activity, Off-chip Mobility Shift Assay (MSA)
Format: biochemical
Settings: room temperature, one hour, read-out: IC50 value with respect to CDK9/CycT1
Experimental: [Assay of CDK9 Inhibitory Activity]
The tests for confirming CDK9 inhibitory activity were carried out by the following procedure according to Off-chip Mobility Shift Assay (MSA).
A substrate/ATP/metal solution (4×) was prepared with use of a kit buffer (20 mM HEPES, 0.01% Triton X-100, 5 mM DTT, pH7.5). A kinase solution (2×) was prepared with use of an assay buffer.
2) The test substance solutions, the substrate/ATP/metal solution, and the kinase solution were mixed in wells of a polypropylene plate, and were caused to react at room temperature for one hour.
3) A termination buffer (QuickScout Screening Assist MSA; Cama Biosciences Inc.)
was added thereto to stop the reaction.
4) Substrate peptides and phosphorylated peptides in the reaction solutions were separated and quantified in LabChip™ System (PerkinElmer Co., Ltd.).
5) Kinase reaction activities were evaluated based on a product ratio (P/(P+S)) calculated from a peak height of the substrate peptide (S) and a peak height of the phosphorylated peptide (P).

CDK9/CycT1, sequence (P50750 whole entry): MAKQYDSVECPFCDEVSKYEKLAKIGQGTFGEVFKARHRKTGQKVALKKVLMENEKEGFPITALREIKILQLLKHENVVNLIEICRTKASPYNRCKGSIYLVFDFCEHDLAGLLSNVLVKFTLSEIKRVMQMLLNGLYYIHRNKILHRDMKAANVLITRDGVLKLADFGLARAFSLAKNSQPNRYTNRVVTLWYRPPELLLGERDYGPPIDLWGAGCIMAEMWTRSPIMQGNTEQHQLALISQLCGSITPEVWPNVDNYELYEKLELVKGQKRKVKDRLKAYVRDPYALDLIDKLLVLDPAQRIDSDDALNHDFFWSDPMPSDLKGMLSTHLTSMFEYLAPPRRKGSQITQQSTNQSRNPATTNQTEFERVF
CDK9/CycT1, sequence (O60563 whole entry partner): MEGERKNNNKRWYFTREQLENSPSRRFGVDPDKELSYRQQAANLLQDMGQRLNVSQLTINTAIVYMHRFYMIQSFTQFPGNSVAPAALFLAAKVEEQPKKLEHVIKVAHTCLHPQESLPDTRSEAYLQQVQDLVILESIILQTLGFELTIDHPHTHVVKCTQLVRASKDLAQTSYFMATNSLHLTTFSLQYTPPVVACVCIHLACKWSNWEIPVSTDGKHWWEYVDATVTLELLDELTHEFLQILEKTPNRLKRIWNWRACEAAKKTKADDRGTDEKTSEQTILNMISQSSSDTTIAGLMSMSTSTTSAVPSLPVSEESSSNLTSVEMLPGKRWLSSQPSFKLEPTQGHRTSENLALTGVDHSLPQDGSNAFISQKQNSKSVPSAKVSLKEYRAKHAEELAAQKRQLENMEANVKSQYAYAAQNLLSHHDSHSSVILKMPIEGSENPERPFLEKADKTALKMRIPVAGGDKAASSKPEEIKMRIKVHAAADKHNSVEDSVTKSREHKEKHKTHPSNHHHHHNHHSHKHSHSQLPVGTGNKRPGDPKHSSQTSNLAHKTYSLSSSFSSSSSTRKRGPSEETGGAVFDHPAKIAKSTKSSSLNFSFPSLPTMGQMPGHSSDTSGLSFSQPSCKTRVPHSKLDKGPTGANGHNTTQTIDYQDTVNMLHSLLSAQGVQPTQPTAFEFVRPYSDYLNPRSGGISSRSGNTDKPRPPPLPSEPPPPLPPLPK

SMILES | IC50 [µM]
O=C(Nc1cc(F)ccc1N1CCCCC1)c1ccncc1 [Compound 2] | 13.1
Fc1ccc(N2CCCCCC2)c(NC(=S)c2ccncc2)c1 [Compound 3] | 13.3
O=C(Nc1cc(F)ccc1N1CCCCCC1)c1ccncc1 [Compound 4] | 13.7
